Results on 19 compounds are retold here after ChEMBL document CHEMBL1201862, “PubChem BioAssay data set” (2004).

The source made the active and inactive calls. A value given as a limit tells only on which side of the number the result lay.

Assay [1] can be described thus: cells.
Assay [2] concerns the target T1, Mucolipin-3 (Homo sapiens, UniProt Q8TDD5).
T1 sequence (Q8TDD5 whole entry): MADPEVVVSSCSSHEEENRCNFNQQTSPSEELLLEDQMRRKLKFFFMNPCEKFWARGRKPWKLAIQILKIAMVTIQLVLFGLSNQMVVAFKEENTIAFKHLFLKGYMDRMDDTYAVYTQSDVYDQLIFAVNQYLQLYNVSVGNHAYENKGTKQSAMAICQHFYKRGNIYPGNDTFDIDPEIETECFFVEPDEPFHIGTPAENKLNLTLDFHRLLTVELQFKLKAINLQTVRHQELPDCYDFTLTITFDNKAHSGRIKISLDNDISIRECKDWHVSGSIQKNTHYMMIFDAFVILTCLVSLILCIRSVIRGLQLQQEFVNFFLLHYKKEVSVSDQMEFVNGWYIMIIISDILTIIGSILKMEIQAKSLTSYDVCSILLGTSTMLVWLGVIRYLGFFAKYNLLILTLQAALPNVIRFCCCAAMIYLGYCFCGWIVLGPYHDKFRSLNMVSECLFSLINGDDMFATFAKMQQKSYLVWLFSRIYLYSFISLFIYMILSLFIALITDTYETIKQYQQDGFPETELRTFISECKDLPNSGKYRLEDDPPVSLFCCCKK
As to the kind of experiment: Dose response cell-based high-throughput screening assay for agonists of the transient receptor potential channel ML3 (TRPML3). [Related pubchem assays: 1526, 1424, 1448 ]. The class given is functional.

For assay [3], the target named is Ion channel NompC (Danio rerio, UniProt Q7T1G6). As to the kind of experiment: Fluorescence counterscreen assay for TRPML3 agonists: dose response cell-based high-throughput screening assay to identify agonists of the transient receptor potential channel N1 (TRPN1). [Related pubchem assays: 1526, 1424, 1448 ]. The class given is functional.
Assay [4] concerns the target NAD-dependent protein deacylase sirtuin-5, mitochondrial (Homo sapiens, UniProt Q9NXA8). Nature of the assay: sirtuin-5 deacylation blockers, concentration series – biochemical, fluorescence imaging, cherry-pick, set 5, dose response (AID 720591).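 Also: desuccinylation of succinyl peptide AMC substrate read as fluorescence after trypsin release; potency of inhibitors that lower fluorescence and may act on trypsin instead.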
For assay [5], the target named is FAD-linked sulfhydryl oxidase ALR (Homo sapiens, UniProt P55789). As to the kind of experiment: ALR-catalysed DTT oxidation blockers – biochemical, H2O2 detection, luminescence, cherry-pick, dose response (AID 493248).
For assay [6], the target named is T2, Trace amine-associated receptor 1 (Homo sapiens, UniProt Q96RJ0).
T2 sequence (Q96RJ0 whole entry): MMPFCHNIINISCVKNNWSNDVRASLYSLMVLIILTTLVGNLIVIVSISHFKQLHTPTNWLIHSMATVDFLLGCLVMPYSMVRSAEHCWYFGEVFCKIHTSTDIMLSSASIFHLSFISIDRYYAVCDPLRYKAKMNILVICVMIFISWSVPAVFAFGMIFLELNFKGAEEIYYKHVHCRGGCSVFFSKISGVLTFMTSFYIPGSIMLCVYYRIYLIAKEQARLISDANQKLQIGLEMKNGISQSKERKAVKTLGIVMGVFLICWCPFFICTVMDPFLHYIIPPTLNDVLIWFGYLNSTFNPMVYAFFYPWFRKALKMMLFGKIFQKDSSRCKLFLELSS
As to the kind of experiment: Fluorescence-based cell-based high throughput dose response assay to identify agonists of the human trace amine associated receptor 1 (TAAR1). Format: functional.

Assay [7] has as its target T2, Trace amine-associated receptor 1. As to the kind of experiment: Counterscreen for agonists of the human trace amine associated receptor 1 (hTAAR1): Fluorescence-based cell-based high throughput dose response assay to identify hTAAR1 agonist that also desensitize TAAR1 receptor response. The class given is functional. (In general: A counterscreen serves to expose hits that act by an unwanted route or on another target.)

Assay [8] has as its target T3, Leucine aminopeptidase (Plasmodium falciparum 3D7, UniProt Q8IL11).
T3 sequence (Q8IL11 whole entry): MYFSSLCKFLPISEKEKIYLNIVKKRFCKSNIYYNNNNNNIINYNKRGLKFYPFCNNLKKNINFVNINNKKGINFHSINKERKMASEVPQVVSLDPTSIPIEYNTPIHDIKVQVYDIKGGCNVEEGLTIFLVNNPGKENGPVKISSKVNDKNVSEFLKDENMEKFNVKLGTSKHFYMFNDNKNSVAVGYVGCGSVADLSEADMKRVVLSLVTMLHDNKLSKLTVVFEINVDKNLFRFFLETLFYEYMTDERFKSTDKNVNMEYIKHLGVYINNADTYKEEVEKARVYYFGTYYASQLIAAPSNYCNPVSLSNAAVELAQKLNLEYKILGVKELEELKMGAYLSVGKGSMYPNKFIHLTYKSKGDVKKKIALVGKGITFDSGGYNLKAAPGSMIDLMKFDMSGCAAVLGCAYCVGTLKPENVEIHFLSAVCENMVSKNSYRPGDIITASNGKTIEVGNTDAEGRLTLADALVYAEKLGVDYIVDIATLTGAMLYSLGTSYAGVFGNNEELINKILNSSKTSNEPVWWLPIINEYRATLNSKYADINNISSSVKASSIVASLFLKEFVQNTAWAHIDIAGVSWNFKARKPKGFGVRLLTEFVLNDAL
As to the kind of experiment: P. falciparum M17LAP inhibitors, primary screen, biochemical, fluorogenic H-Leu-NHMec substrate, 1536-well (AID 1619). The class given is functional.

Assay [9] has as its target T4, DNA repair protein RAD52 homolog (Homo sapiens, UniProt P43351).
T4 sequence (P43351 whole entry): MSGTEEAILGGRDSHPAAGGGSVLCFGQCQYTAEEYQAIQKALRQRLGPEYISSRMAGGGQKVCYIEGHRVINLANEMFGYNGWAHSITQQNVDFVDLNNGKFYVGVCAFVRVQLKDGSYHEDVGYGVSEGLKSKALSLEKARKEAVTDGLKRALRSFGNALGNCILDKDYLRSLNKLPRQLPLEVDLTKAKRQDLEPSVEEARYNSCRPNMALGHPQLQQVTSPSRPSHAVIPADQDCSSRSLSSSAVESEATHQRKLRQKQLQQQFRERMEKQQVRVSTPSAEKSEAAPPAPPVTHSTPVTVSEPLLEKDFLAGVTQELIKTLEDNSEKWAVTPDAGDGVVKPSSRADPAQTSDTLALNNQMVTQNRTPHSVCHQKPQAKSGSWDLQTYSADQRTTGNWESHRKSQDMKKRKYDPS
Format: functional, biochemical.

Assay [10] deals with T5, Calpain-2 catalytic subunit (Sus scrofa, UniProt P43367).
T5 sequence (P43367 whole entry): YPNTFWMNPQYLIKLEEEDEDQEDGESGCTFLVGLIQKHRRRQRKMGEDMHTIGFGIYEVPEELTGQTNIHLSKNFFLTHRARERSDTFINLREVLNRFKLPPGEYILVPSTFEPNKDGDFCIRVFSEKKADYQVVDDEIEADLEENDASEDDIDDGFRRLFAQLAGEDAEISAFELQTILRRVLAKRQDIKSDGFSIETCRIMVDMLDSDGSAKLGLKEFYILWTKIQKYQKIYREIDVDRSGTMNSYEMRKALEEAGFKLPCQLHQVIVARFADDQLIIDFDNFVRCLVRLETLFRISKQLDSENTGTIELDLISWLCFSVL
Nature of the assay: m-calpain protease blockers, concentration series – biochemical, fluorogenic peptide substrate, dose response (AID 1420). The class given is functional.

Assay [11] in a line: viability loss in THP-1 monocytes – THP-1 cells, cytotoxicity control for Vif-APOBEC3G degradation inhibitor project, dose response (AID 1117359). The class given is functional. As to conditions: THP-1.
Assay [12] can be described thus: M. tuberculosis H37Rv growth inhibitors, H37Rv strain (AID 1626). Format: functional.
Assay [13] concerns the target T6, Mannose-6-phosphate isomerase (Homo sapiens, UniProt P34949).
T6 sequence (P34949 whole entry): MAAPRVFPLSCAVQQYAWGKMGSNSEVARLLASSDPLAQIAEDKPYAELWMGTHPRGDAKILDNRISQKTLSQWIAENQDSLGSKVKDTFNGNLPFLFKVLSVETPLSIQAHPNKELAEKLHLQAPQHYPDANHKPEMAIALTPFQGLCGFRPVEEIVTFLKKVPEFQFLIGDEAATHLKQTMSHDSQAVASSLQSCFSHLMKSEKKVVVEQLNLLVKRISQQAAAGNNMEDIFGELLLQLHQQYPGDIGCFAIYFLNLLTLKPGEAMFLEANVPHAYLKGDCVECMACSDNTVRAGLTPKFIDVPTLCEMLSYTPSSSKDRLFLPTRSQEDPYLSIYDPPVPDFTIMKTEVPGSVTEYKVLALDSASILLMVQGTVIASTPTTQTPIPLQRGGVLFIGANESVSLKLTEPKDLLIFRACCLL
As to the kind of experiment: MPI inhibition at elevated mannose 6-phosphate – biochemical, fluorescence intensity, high mannose 6-phosphate, primary screen (AID 1220).

Assay [14] in a line: Luminescence Cell-Based Dose Confirmation HTS to Identify Activators of 5'UTR Stem-Loop Driven Alpha-Synuclein mRNA Translation in H4 Neuroglioblastoma Cells. [Related pubchem assays: 1829 (Project Summary), 1814 (Primary HTS)]. The class given is functional.
Assay [15] can be described thus: Luminescence Cell-Based Dose Response HTS to Identify Activators of Luciferase Translation or Activity in H4 […] Cells. [Related pubchem assays: 1829 (Project Summary), 1814 (Primary HTS)]. The class given is functional.
Assay [16] has as its system H4. As to the kind of experiment: Luminescence Cell-Based Dose Response HTS to Identify Activators of 5'UTR Stem-Loop Driven Prion Protein mRNA Translation in H4 Neuroglioblastoma Cells. [Related pubchem assays: 1829 (Project Summary), 1814 (Primary HTS)]. The class given is functional. As to conditions: Homo sapiens.
Assay [17] can be described thus: cells. Format: functional, cell-based.
The nature of assay [18]: cells. Format: functional, cell-based. The source holds these as a separate data set.
Assay [19] is described as follows: viability of uninfected HEp-2 cells – cell-based, HTS, cytotoxicity control for RSV inhibitor project, dose response (AID 2410). The following applies: human respiratory syncytial virus. Format: functional.

As a reminder, the IC50 is the concentration that inhibits the measured activity by half. Usually EC50 stands for the concentration needed to bring the measured effect to its halfway point. By AC50 is commonly meant the midpoint of the concentration-response curve, whichever way the signal moves. Broadly, the CC50 is the concentration at which the toxic effect on the cells reaches its halfway point.

NAD-dependent protein deacylase sirtuin-5, mitochondrial, sequence (Q9NXA8 whole entry): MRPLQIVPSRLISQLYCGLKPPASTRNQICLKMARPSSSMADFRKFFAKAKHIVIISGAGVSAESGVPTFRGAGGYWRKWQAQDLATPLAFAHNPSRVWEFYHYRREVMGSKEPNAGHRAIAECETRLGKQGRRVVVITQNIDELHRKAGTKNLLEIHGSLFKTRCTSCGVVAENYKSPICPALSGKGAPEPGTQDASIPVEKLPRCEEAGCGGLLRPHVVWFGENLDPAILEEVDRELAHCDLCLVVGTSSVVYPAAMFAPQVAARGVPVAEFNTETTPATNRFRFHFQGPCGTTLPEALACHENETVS
Ion channel NompC, sequence (Q7T1G6 whole entry): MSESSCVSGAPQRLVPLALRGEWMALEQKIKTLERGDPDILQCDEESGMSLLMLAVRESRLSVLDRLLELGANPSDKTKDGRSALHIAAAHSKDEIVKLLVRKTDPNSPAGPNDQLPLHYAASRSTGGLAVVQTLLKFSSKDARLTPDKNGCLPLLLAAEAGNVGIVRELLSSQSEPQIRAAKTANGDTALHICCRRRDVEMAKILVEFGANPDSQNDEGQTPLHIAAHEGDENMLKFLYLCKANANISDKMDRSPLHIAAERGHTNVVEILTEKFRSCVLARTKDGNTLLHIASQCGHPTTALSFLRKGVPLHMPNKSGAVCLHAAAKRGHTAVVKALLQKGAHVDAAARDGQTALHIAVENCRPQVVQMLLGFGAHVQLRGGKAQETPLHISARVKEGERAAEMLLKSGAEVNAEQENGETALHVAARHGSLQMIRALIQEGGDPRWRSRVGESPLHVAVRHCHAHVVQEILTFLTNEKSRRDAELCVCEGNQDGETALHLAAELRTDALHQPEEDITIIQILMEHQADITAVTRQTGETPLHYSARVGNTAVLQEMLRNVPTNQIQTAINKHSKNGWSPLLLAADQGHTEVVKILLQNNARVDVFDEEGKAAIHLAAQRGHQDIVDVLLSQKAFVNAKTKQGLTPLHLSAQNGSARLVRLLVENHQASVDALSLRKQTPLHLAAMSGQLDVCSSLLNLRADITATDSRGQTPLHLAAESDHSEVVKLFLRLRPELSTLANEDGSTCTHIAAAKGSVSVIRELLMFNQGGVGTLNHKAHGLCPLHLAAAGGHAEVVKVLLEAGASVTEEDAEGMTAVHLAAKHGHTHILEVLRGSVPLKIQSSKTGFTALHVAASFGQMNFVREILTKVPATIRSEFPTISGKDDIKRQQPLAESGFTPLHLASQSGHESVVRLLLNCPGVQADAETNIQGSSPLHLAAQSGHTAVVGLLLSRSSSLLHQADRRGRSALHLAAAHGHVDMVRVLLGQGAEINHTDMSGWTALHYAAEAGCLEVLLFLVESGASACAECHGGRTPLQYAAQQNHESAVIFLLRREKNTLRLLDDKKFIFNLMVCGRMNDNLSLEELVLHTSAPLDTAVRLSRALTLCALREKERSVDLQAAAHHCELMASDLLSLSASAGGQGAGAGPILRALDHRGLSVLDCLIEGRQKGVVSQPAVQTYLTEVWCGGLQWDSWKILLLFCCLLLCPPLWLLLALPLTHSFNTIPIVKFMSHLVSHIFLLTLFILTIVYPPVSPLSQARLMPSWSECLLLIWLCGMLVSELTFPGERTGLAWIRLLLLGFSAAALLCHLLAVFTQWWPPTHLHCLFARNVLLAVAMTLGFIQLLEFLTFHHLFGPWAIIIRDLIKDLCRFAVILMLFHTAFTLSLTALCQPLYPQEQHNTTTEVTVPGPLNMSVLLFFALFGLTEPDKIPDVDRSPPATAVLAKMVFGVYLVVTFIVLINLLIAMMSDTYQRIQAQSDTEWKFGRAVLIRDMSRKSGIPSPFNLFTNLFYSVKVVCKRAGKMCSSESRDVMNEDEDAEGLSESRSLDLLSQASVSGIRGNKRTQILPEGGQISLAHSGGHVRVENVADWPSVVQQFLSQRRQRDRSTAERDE
FAD-linked sulfhydryl oxidase ALR, sequence (P55789 whole entry): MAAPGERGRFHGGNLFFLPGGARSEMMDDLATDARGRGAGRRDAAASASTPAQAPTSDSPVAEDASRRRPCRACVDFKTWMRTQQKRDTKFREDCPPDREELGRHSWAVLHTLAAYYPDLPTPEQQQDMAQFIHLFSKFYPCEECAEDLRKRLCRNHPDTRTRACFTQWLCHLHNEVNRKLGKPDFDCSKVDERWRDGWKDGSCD

Regarding `COC(=O)c1ccc2[nH]ccc2c1`, in assay [1], the IC50 is 42.7 µM (active).
On to `Cc1cc(C)c(S(=O)(=O)Nc2ccccc2-c2ccccc2)c(C)c1`, for which the figures for the EC50 in [2] and in [3] were 5.34 µM (active) and > 29.9 µM (not active), respectively.
Take `CN(C)C(CNC(=O)CCNC(=O)c1ccc(Cl)cc1)c1ccco1` (stereo not given): the AC50 in assay [4] is > 30 µM (inactive).
For the compound `Cc1ccc(S(=O)(=O)NC2CCCCC2)c2nsnc12`, the EC50 in [2] was 8.34 µM (active); in assay [3], > 29.9 µM (not active).
With `COC(=O)[C@H](Cc1c[nH]c2ccccc12)NC(=O)NCc1ccc(OC)c(OC)c1`, the AC50 in assay [4] is > 30 µM (inactive).
On to `Cn1c(=O)c2[nH]c(Nc3ccccc3)nc2n(C)c1=O`, for which the AC50 in [5] was 0.398 µM (active). Also, the EC50 in [6] is 5.67 µM (active). Moreover, the IC50 in assay [7] is 9.39 µM (active).
As for `CC1=CC(C)(C)N(C(=O)CN2C(=O)c3ccccc3C2=O)c2ccccc21`, the half-maximal effective concentration (EC50) in assay [2] is 1.45 µM (active); in assay [3] it was > 29.9 µM (not active).
On to `CC1CCN(CC(=O)Nc2ccc(N3CCCCCC3)cc2)CC1`, for which the half-maximal inhibitory concentration (IC50) in assay [8] is 13 µM (active). For the same compound, the concentration at half-maximal activity (AC50) in [5] is 0.448 µM (active); in assay [9] it was 18 µM (active).
As to `CCOc1cc(CNc2ccc(O)cc2)cc(Br)c1OCc1ccccc1F`, the concentration for half-maximal inhibition (IC50) in assay [10] is listed as 9.81 µM (not active). Besides, the CC50 in assay [11] was 27.8 µM (active).
Regarding `O=C(COC(=O)c1ccccc1Br)Nc1ccccc1F`, the half-inhibitory concentration (IC50) in [12] was > 100 µM (active).
On to `Oc1nc(Cc2ccc(F)cc2)nc2scc(-c3ccc(F)cc3)c12`, for which the concentration at half-maximal activity (AC50) in [4] is 18 µM (active).
With `Cc1c(C(=O)NC(C)C)oc2c1-c1n[nH]cc1CC2`, in assay [13], the half-inhibitory concentration (IC50) is > 50 µM (not active).
For the compound `COc1ccc(OC(=O)NCCc2ccccc2)cc1`, the EC50 is 29 µM (active) in assay [14]; 49 µM (active) in [15]; 16.1 µM (active) in assay [16]; 0.535 µM (active) in [6]; > 29.9 µM (inactive) in assay [18]. For the same compound, the IC50 in [17] and in [7] was > 29.9 µM (inactive) in each case.
`Cn1cccc1/C=C1/C(=O)NC(=O)N(Cc2ccccc2)C1=O`: the CC50 in assay [11] is > 40 µM (active).
With `COc1ccccc1CCNC(=O)C(=O)NCC1OCCN1S(=O)(=O)c1ccc(C)cc1` (stereo not given), the values for the IC50 in assay [17] and in assay [7] were > 29.9 µM (inactive) and 7.91 µM (active), respectively. Also, the EC50 in assay [6] was 2.51 µM (active); in assay [18] it was > 29.9 µM (inactive).
In the case of `C/C(N)=C(/C#N)C(=O)COC(=O)c1ccccc1Cc1ccccc1`, the CC50 in [19] was 32.2 µM (active). In addition, in assay [1], the concentration for half-maximal inhibition (IC50) was 45 µM (active).
`O=C(/C=C/C(=O)N1CCc2ccccc2C1)N1CCc2ccccc2C1`: the IC50 in assay [17] was > 29.9 µM (inactive); in assay [7] it was 4.67 µM (active). For the same compound, the EC50 in assay [6] is 1.14 µM (active); in assay [18], > 29.9 µM (inactive).
`O/N=C/c1ccc(-c2cc(Cl)ccc2Cl)o1`: the IC50 in assay [12] is > 100 µM (active).
As for `Nc1nnc(SCc2ccc(F)cc2)s1`, the concentration for half-maximal inhibition (IC50) in [12] is > 100 µM (active).
